Series [1] is described as follows: Aqueous Solubility (PBS, pH 7.4). The settings on record: pH 7.4, 2.0E−04 M; for solubility: pH 7.4, PBS. It is filed as physicochemical.
The nature of series [2]: Partition Coefficient (Log D, n-octanol/PBS, pH 7.4). In kind it is physicochemical. The settings on record: 1.0E−04 M; for logD: read-out: Partition Coefficient Log D, Weighed Average of Three Replicates.
Another series deals with PC12 cells. Description: NGF-stimulated neurite outgrowth in PC12 cells. It is filed as cell-based. Conditions: 100 nM compound, NGF 100 ng/ml, 6 days. As to the method: In chronic pain states, neurons form outgrowths which sensitize them to pain. NGF-induced neurite outgrowth was used as an assay for TrkA-dependent chronic/neuropathic pain activity.
Methods: PC12 cells were grown in 2% FBS and treated with or without NGF (100 ng/ml) 30 min before adding of vehicle or TRKA compounds for 6 days, changing media on day 3. On day 6 cells were fixed and stained for SRB before photographed for neurite outgrowth.

For a further series, the system named is MMP-1 in A549 cells. Description: PMA induced MMP-1 production in A549 cells. It is filed as cell-based. The settings on record: one hour treatment.
For a further series, the system named is PC-12 cells. Description: PC-12 cell cytotoxicity. In kind it is cell-based. Conditions: FIG. 13.
The subject of the next series is FKBP51 (GR pathway). Description: GR specific anti-inflammatory marker FKBP51 in A549 cells. In kind it is cell-based.
The test system of the next series is IL-8 in A549 cells. Description: PMA-induced IL-8 levels in A549 cells, with or without RU-486. It is filed as cell-based. The settings on record: 4 hr treatments.
The next series relates to A549 cells. Description: TNFα-induced acute inflammation in A549 cells. It is filed as cell-based. Conditions: 100 nM Dex or 1 μM compound (VI).
Another series concerns U937. Description: Cellular IC50, U937. In kind it is cell-based. Conditions: Homo sapiens, U-937; Table 3A.
The test system of the next series is Karpas299. Description: Cell proliferation inhibition, ALCL line Karpas299. It is filed as cell-based. The settings on record: Homo sapiens, KARPAS-299; Table 3A; read-out: Cellular IC50 K-299. The source says: The IL-3-dependent lymphoid cell line BaF3 or BaF3 rendered IL-3-independent by engineered expression of NPM-ALK were used in parallel to test each candidate inhibitor. Control wells contained DMSO solvent without test compound. Specific inhibition of ALK signaling is indicated in the assay by impairment of NPM-ALK-expressing BaF3 cell growth without alterations in the growth of parental BaF3. This colorimetric assay of cell proliferation and viability is based upon reduction of the yellow monotetrazolium salt XTT to a water-soluble orange formazan dye, a reaction catalyzed by mitochondrial dehydrogenases in living cells only (Cell Proliferation Kit II, Cat. #1 465 015, Roche Biochemicals). In addition to testing compounds for their ability to impair the growth of BaF3 cells engineered to express NPM-ALK, the NPM-ALK-positive human lymphoma cell line Karpas-299 (Deutsche Sammlung von Mikroorganismen and Zellkulturen GmbH (DSMZ) no. ACC 31), the human BCR-ABL-positive chronic myeloid leukemia cell line K562 (American Type Culture Collection (ATCC) no. CCL-243), and the human T-cell leukemia line Jurkat (DSMZ no. ACC 282) were tested in these assays.
Each compound stock in 100% DMSO was first diluted using 8% DMSO/culture medium to produce a working stock of 250 μM compound. This working stock was then used to perform serial 1:1 dilutions (i.e., 125 μM, 62.5 μM, 31.25 μM, 15.625 μM, 7.8125 μM, and 3.90625 μM) using DMSO-free culture medium. Twenty (20) μL of each of these dilutions was then added to the cells (2×10^4 cells in 80 μL culture medium per 96-well) to obtain the final test compound concentrations (i.e., 25 μM, 12.5 μM, 6.25 μM, 3.125 μM, 1.5625 μM, and 0.78125 μM).
(§1) Cell proliferation inhibition assays were run for compound (II) with the five target NPM-ALK-dependent ALCL cell lines (Karpas 299, SuDHL-1, JB6, SupM2, UConn) and 12 unrelated cell lines (HEK293, CHO-K1, MCF7, HepG2, H292, H520, H1581, H596, H522, CHA-GO-K1, UMC-11, SK-MES1). […] The pronounced target cell-killing effect is also observed (molecular mechanisms to be determined).

A further series deals with T1, IRK (Homo sapiens, UniProt P06213).
T1 construct: 6×His- or GST-tagged kinase domain fragments of the corresponding RTKs expressed in baculovirus system; host or cells: baculovirus system
Description: IRK (insulin receptor kinase) assay. It is filed as biochemical. The settings on record: Table 3A; read-out: Cell Free IC50 IRK. The method in brief: (§2)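 The AlphaScreen PT66 format of the NPM-ALK assay was applied with minor modifications to commercial recombinant His/GST-tagged kinase domains. Compound (0.078125–40 μM) was incubated 30 min at RT with 10 μM ATP and biotinylated poly-GT in Tris pH 7.5/MgCl2/MnCl2/DTT buffer, then beads 60 min. Read at 520–680 nm; IC50 and Ki derived.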

Series [3] can be described thus: Liver microsome stability, Mouse LM-P1 / MLM. The settings on record: Table 3A, mouse liver microsomes; read-out: CL MLM. In kind it is in vitro ADME.
Series [4] can be described thus: Liver microsome stability, Human LM-P1 / HLM. In kind it is in vitro ADME. Conditions: Table 3A, human liver microsomes; read-out: CL HLM. The text has this:
Metabolic stability of compound (II) (labeled as CRL241 below) in vitro has been tested in a standard in vitro microsomal stability assay in human microsomes (Cerep Study 13170).
For orientation: Microsomes from liver hold many membrane-bound enzymes, among them those of drug oxidation.

In the next series the target is TRKA (Homo sapiens, UniProt P04629). Description: TRKA kinase assay. It is filed as biochemical. The arrangement: 6×His- or GST-tagged kinase domain fragments of the corresponding RTKs expressed in baculovirus system; host or cells: baculovirus system. Conditions: Table 3A; read-out: Cell Free IC50 TRKA.
Another series deals with ALK (Homo sapiens, UniProt Q9UM73). Description: ALK kinase assay (Kinase-Glo / AlphaScreen, purified NPM-ALK).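 Further: recombinant baculovirus-expressed ALK kinase domain, activity read either as leftover ATP by Kinase-Glo luminescence or as poly(Glu-Tyr) phosphorylation by anti-phosphotyrosine AlphaScreen proximity signal.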 In kind it is biochemical. Also on record: fused to the complete intracytoplasmic portion of ALK containing the functional tyrosine kinase domain; 6xHis; made in house; host or cells: insect cells; the other entry of the earlier key: NPM1 (P06748, Nucleophosmin). Conditions: Table 3A; read-out: Cell Free IC50 ALK. A general note: In Kinase-Glo more light means more ATP remaining.

Another series deals with T2, IGF1R (Homo sapiens, UniProt P08069).
T2 construct: 6×His- or GST-tagged kinase domain fragments of the corresponding RTKs expressed in baculovirus system; host or cells: baculovirus system
Description: IGF1R kinase assay. It is filed as biochemical. The settings on record: Table 3A; read-out: Cell Free IC50 IGF1R. The procedure, abridged:
as §2

A further series relates to SUDHL-1. Description: Cellular IC50, SUDHL-1. It is filed as cell-based. The settings on record: Homo sapiens, SU-DHL-1; Table 3A.
Excerpt: as §1

For series [5] the following is noted: Caco-2, pH 6.5.
Series [6] is described as follows: Caco-2 (TC7) A-B Permeability test (pH 6.5/7.4). The settings on record: A-B Permeability (TC7, pH 6.5/7.4), test concentration 1.0E−05 M. On the technique in general: Passage across Caco-2 layers is used to estimate intestinal permeability.
Where [7] appears, read: Tables 9C, 9D, read-out: Solubility Mean.
Where [8] appears, read: individual data, read-out: Solubility 1st/2nd.

In brackets after ≈: the same amount, converted by molar mass. Where a name gives a salt, the structure may show the parent alone. Read-outs that look alike come from different tables or passages of the source.

Chain of TRKA (P04629 510-781 limits assumed): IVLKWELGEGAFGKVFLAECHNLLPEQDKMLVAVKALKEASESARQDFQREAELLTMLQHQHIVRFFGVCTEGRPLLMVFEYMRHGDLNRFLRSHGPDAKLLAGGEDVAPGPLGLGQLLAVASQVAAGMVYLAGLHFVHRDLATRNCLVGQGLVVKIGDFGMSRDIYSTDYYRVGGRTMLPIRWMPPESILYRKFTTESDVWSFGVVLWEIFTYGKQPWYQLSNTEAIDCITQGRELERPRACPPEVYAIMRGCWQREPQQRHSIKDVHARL
T1 sequence (P06213 1023-1298 limits assumed): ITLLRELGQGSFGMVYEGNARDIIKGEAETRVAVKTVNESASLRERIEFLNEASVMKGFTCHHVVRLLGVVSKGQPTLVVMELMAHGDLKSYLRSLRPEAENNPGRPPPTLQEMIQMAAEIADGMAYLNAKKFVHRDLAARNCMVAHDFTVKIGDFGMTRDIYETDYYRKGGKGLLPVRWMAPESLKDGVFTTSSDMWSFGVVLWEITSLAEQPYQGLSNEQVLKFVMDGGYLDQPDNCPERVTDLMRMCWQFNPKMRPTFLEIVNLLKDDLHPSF
Chain of ALK (Q9UM73 with tags, fused parts or gaps): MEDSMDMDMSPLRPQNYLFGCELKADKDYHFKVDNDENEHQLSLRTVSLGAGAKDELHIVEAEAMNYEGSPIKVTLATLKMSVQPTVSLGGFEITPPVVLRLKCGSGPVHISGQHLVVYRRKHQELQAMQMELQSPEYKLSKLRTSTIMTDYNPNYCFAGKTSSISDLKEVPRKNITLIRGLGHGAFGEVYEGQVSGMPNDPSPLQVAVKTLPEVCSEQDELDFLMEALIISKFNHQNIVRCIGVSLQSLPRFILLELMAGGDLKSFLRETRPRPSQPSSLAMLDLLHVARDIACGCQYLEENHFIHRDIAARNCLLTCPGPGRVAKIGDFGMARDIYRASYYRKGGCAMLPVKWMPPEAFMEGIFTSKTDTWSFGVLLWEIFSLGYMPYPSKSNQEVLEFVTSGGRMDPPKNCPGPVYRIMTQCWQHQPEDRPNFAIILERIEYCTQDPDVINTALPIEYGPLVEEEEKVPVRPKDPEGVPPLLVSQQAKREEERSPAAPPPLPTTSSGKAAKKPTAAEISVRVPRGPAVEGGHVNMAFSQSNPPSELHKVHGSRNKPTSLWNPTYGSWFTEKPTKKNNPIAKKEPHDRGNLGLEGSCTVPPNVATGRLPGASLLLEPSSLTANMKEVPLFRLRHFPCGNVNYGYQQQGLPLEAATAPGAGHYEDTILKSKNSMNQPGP
T2 sequence (P08069 999-1274 limits assumed): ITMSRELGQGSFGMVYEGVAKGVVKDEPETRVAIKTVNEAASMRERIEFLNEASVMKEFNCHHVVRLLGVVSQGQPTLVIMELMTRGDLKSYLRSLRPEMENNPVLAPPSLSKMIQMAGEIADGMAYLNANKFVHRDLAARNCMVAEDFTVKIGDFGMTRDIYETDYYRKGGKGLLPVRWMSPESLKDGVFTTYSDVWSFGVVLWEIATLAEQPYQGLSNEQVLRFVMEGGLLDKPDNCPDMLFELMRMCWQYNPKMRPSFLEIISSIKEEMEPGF

With `CC/C(=C(/CC)c1ccc(O)cc1)c1ccc(O)cc1` [Diethylstilbestrol], in [1] (individual data), the “Solubility 1st/2nd” value is 8.59 μm. Further, the solubility in series [1] (setting [7]) and in series [1] (setting [8]) was 8.6 µM (≈ 2.31 µg/mL) each time. For the same compound, in series [2], the logD was over 5.
For the compound `COCCc1ccc(OCC(O)CNC(C)C)cc1` (centres unmarked) [Metoprolol tartrate], the “Solubility 1st/2nd” value in [1] (individual data) is given as 188.93 μm. The solubility in [1] (setting [7]) and in series [1] (setting [8]) was 190 µM each time. In addition, the logD in series [2] was -0.46.
Regarding `O=C1NC(=O)C(c2ccccc2)(c2ccccc2)N1` [Phenytion], the “Partition Coefficient Log D, Weighed Average of Three Replicates” value in series [2] came out at 2.34.
Take `CO[C@H]1/C=C/O[C@@]2(C)Oc3c(C)c(O)c4c(O)c(c(/C=N/N5CCN(C)CC5)c(O)c4c3C2=O)NC(=O)/C(C)=C\C=C\[C@H](C)[C@H](O)[C@@H](C)[C@@H](O)[C@@H](C)[C@H](OC(C)=O)[C@@H]1C` [Rifampicin]: the “Solubility 1st/2nd” value in series [1] (individual data) stood at 186.51 μm. For the same compound, the solubility worked out at 184 µM (≈ 151 µg/mL) in [1] (setting [7]) and 181 µM (≈ 149 µg/mL) in series [1] (setting [8]). Moreover, in [2], the logD was 1.23.
Take `C[C@@H](Cc1c(F)c(F)cc(F)c1F)Nc1cc[nH]c(=O)c1-c1nc2cc3c(cc2[nH]1)CN(CCN1CCCC1)C3=O` [compound (III)]: in the series with PC12 cells, the NGF-stimulated neurite outgrowth result is on record as “inhibited the neurite outgrowth”. For the same compound, the “Concentration required for complete inhibition of PMA induced MMP-1 production” value in the series with MMP-1 in A549 cells was about 1 µM. Also, the PC-12 cell cytotoxicity entry in the series on PC-12 cells is recorded as “lack of PC-12 cell cytotoxicity”. For the same compound, the “Activation of GR pathway (FKBP51 marker)” value in the series with FKBP51 (GR pathway) is listed as “did not active the GR pathway”. Also, in the series on IL-8 in A549 cells, the “Effect of GR antagonist RU-486 on inhibition of PMA-induced IL-8 levels” value is listed as “not affected or possibly were more potent”.
For `C[C@@H](Cc1cc(F)cc(F)c1F)Nc1cc[nH]c(=O)c1-c1nc2cc3c(cc2[nH]1)CN(CCN1CCCC1)C3=O` [compound (VII)], the NGF-stimulated neurite outgrowth entry with PC12 cells is listed as “inhibited the neurite outgrowth”. Further, the PC-12 cell cytotoxicity result with PC-12 cells is recorded as “lack of PC-12 cell cytotoxicity”.
Turning to `C[C@@H]1C[C@H]2[C@@H]3CCC4=CC(=O)C=C[C@]4(C)[C@@]3(F)[C@@H](O)C[C@]2(C)[C@@]1(O)C(=O)CO` [dexamethasone, reference compound], the TNFα-induced acute inflammation entry in the series with A549 cells is recorded as “partially reversible”. For the same compound, in the series with MMP-1 in A549 cells, the “Inhibition of PMA induced MMP-1 production” value is reported as “potently inhibit PMA induced MMP-1 production in the nM range”. In addition, the “Effect of GR antagonist RU-486 on inhibition of PMA-induced IL-8 levels” value with IL-8 in A549 cells is reported as “reversible by GR antagonist RU-486”.
One may read the IC50 as the concentration needed to halve the response being measured. For the compound `Cc1ccc(F)cc1C[C@H](C)Nc1cc[nH]c(=O)c1-c1nc2cc3c(cc2[nH]1)C(=O)N(CCN1CCCC1)C3` [drawing 360], the IC50 with U937 is over 3000 nM; in the series with Karpas299 it was 81 nM; at IRK, 254 nM; on TRKA, 2 nM; at ALK, 2 nM. Moreover, the CLint scaled was 52.9 mL/min/kg in [3] and under 5.8 mL/min/kg in [4].
`Cc1ccc(F)cc1C[C@H](C)Nc1cc[nH]c(=O)c1-c1nc2cc3c(cc2[nH]1)CN(CCN(C)C)C3=O` [drawing 361]: the IC50 in the series on U937 is over 3000 nM; in the series on Karpas299, 155 nM; at IGF1R, 455 nM; at IRK it was 526 nM; on TRKA it was 3 nM; with SUDHL-1, 30 nM. In addition, the CLint scaled in series [3] is 46 mL/min/kg; in series [4] it was under 5.8 mL/min/kg.
Turning to `CC[C@]1(O)C[C@@H]2CN(CCc3c([nH]c4ccccc34)[C@@](C(=O)OC)(c3cc4c(cc3OC)N(C)[C@H]3[C@@](O)(C(=O)OC)[C@H](OC(C)=O)[C@]5(CC)C=CCN6CC[C@]43[C@@H]65)C2)C1` [vinblastin], in series [5], the “Mean Permeability” value is given as 0.0 10^−6 cm/s, the “Permeability 1st” value is on record as 0.82 10^−6 cm/s and the “Permeability 2nd” value is given as 0.02 10^−6 cm/s. Also, the “Present Recovery 1st” value in series [6] (1st replicate) worked out at 73%. In addition, the “Present Recovery 2nd” value in [6] (2nd replicate) is reported as 57%. Moreover, the “Mean Recovery” value in series [6] (mean of n = 2) worked out at 65%.

These data come from patent publication US9249147B2, “Tyrosine kinase inhibitors” (CHEMBRIDGE CORPORATION, priority 2008, dated 2016).
